Measured values taken from patent US7271162B2, “Cycloocta[b][1,4]diazepino[6,7,1-hi]indoles and derivatives” (Wyeth, priority 2000, dated 2007).
Structures can show the parent of a compound that is named as a salt. Where two headings read alike, the source gives them in different places.

Legend:
[1] = target: T1, human 5-hydroxytryptamine2C (h5HT2C) receptor (Homo sapiens, UniProt P28335); assay: 5HT2C Receptor Binding Test Procedure ([125I] DOI displacement, membranes of transfected CHO cells)
T1 construct: expressed in transfected cells; host or cells: CHO (Chinese Hamster Ovary) cells; membrane preparation
T1 sequence (P28335 33-458): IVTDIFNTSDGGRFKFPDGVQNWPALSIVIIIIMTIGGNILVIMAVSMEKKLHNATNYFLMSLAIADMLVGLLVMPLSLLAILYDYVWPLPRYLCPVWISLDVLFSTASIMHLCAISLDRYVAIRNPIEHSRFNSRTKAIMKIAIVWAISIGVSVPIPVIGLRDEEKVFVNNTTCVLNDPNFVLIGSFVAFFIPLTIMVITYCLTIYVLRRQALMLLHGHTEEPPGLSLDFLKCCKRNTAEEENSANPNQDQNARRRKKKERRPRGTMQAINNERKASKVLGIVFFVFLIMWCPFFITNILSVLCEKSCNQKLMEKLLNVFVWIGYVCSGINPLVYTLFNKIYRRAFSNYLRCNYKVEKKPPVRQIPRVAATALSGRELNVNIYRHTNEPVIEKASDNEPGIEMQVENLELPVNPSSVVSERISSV

human 5-HT2C receptor = target: T2, human 5-HT2C receptor (Homo sapiens, UniProt P28335); assay: Stimulation of [3H] Inositol Monophosphate Production by 5HT2C Agonists in transfected CHO cells; conditions: read-out: 5HT2C Stimulation of IP3 % Emax (5HT, 100%)
T2 sequence (P28335 33-458): T1 sequence (P28335 33-458)
Experimental: One (1) ml of maintenance medium containing 1 μCi/ml myo-[^3H] inositol was added to each well. After 48 hours labeling, the cells were washed once with 0.5 ml DMEM containing 25 mM HEPES and 10 mM LiCl, then preincubated with the medium for 30 min (antagonists were included in this period if tested). At the end of the preincubation, the medium was removed, the cells were then incubated with test compounds (in presence of antagonists if needed) for 30 min. The reaction was terminated by removal of the incubation solution and addition of 0.5 ml ice-cold 5% PCA, followed by 15 to 30 min incubation on ice. 200 μl of 0.5 M Tes/1.5 M K2CO3 was added to each well to neutralize to pH 7, and plates were left on ice for another 15 to 30 min to precipitate all salts. The liquid and solid phases were separated by centrifugation.
A portion (350 μl) of the upper aqueous phase was applied to Dowex AG-1X8 (formate form, 100-200 mesh) columns. The columns were then washed stepwise with 10 ml of water and 10 ml of 25 mM ammonium formate to remove free myo-[^3H]inositol and deacylated phosphoinositol, respectively. Finally 10 ml of 0.2 M ammonium formate solution was applied to the columns to elute [^3H] inositol monophosphate ([^3H] IP1) directly into scintillation vials. Of this eluate, 1 ml was used to determine radioactivity by scintillation counting. […]

Question: Which melting point does the source give for c1cc2c3c(c1)c1c(n3CCNC2)CCCCCC1 (as salt: hydrochloride) [Example 1, 1,2,3,4,8,9,10,11,12,13-Decahydrocycloocta[b][1,4]diazepino[6,7,1-hi]indole] here?
Answer: 316 to 318 °C

Question: For CSc1ccc2c(c1)C(N1CCN(C)CC1)Cc1ccccc1S2 (stereo not drawn) [Methiothepin], which Ki ([1]; reference compounds, [125I] DOI binding, h5HT2C CHO membranes, read-out: Ki value and 95% confidence interval) is on record?
Answer: 4.6 nM

Question: With c1cc2c3c(c1)C1CCCCCCC1N3CCNC2 (stereo not drawn) [Example 2, 1,2,3,4,7b,8,9,10,11,12,13,13a-Dodecahydrocycloocta[b][1.4]diazepino[6,7,1-hi]indole] as the compound, how does the melting point read?
Answer: 58 to 63 °C

Question: What about the Ki [1] of the same compound?
Answer: 65 nM

Question: With c1cc2c3c(c1)c1c(n3CCNC2)CCCCCC1 [Example 1, 1,2,3,4,8,9,10,11,12,13-Decahydrocycloocta[b][1,4]diazepino[6,7,1-hi]indole] as the compound, how does the Emax (human 5-HT2C receptor) read?
Answer: 120%

Question: Which Kd ([1]; read-out: dissociation constant, KD of [125I] DOI at the human serotonin 5HT2C receptor, saturation binding with increasing concentrations of [125I] DOI) does the source give for COc1cc(CC(C)N)c(OC)cc1I (stereo not drawn) [[^125I] DOI] here?
Answer: 0.4 nM
